Measured values taken from patent US11571411B2, “Use of a bisamide derivative of malonic acid for treating allergic and other diseases in humans and animals” (PHARMENTERPRISES ALLERGY LLC, priority 2018, dated 2023).

Test system: histamine-induced nasal congestion model
Assay: Histamine-induced nasal congestion model in dogs, oral administration
Type: in vivo, Beagle dogs
Experimental: A histamine-induced nasal congestion model in dogs was performed according to the standard procedure [Tiniakov R. L., Tiniakova O. P., McLeod R. L., Hey J. A., Yeates D. B. Canine model of nasal congestion and allergic rhinitis//J Appl Physiol. 2003. V.94(5). P.1821-1828]. Beagle dogs were injected in the nasal cavity with a 5% histamine solution in a volume of 250 μl/nostril. The volume of the nasal cavity of the right and left nostrils was measured using a rhinometer before and 5, 10, 15, 20, 30, 40, 50 and 60 minutes after administration of histamine. Three experiments were performed, in which Compound I was administered orally once at different times: 1) 30 minutes before administration of histamine; 2) 1 hour before administration of histamine; and 3) 6 hours before administration of histamine, and one experiment was performed, in which Compound I was administered orally once daily for 14 days, the last administration was carried out 1 hour before administration of histamine.

[1] = oral 6 hours before histamine, 0.54 mg/kg, 40 minutes after histamine
[2] = oral 6 hours before histamine, 0.54 mg/kg, 50 minutes after histamine
[3] = oral 6 hours before histamine, 0.54 mg/kg, 60 minutes after histamine
[4] = oral 6 hours before histamine, 0.54 mg/kg, before histamine administration
[5] = oral for 14 days, 0.13 mg/kg, 5 minutes after histamine
[6] = oral for 14 days, 0.13 mg/kg, 10 minutes after histamine
[7] = oral for 14 days, 0.13 mg/kg, 15 minutes after histamine
[8] = oral for 14 days, 0.13 mg/kg, 20 minutes after histamine
[9] = oral for 14 days, 0.13 mg/kg, 30 minutes after histamine
[10] = oral for 14 days, 0.13 mg/kg, 40 minutes after histamine
[11] = oral for 14 days, 0.13 mg/kg, before histamine administration
[12] = oral for 14 days, 0.27 mg/kg, 5 minutes after histamine
[13] = oral for 14 days, 0.27 mg/kg, 10 minutes after histamine
[14] = oral for 14 days, 0.27 mg/kg, 15 minutes after histamine
[15] = oral for 14 days, 0.27 mg/kg, 20 minutes after histamine
[16] = oral for 14 days, 0.27 mg/kg, 30 minutes after histamine
[17] = oral for 14 days, 0.27 mg/kg, 40 minutes after histamine
[18] = oral for 14 days, 0.27 mg/kg, before histamine administration
[19] = oral for 14 days, 0.54 mg/kg, 5 minutes after histamine
[20] = oral for 14 days, 0.54 mg/kg, 10 minutes after histamine
[21] = oral for 14 days, 0.54 mg/kg, 15 minutes after histamine
[22] = oral for 14 days, 0.54 mg/kg, 20 minutes after histamine
[23] = oral for 14 days, 0.54 mg/kg, before histamine administration
[24] = oral once 30 minutes before histamine, 0.005 mg/kg, 5 minutes after histamine
[25] = oral once 30 minutes before histamine, 0.005 mg/kg, 10 minutes after histamine

**Q.** Which results are given for O=C(CC(=O)NCCc1cnc[nH]1)NCCc1cnc[nH]1 [Compound I, N,N′-bis(2-(1H-imidazol-5-yl)ethyl)malonamide]?
**A.** Volume of the nasal cavity, left nostril [1]: 3.5 ± 0.1$ cm^3; Volume of the nasal cavity, right nostril [1]: 3.5 ± 0.1$ cm^3; Volume of the nasal cavity, left nostril [2]: 2.9 ± 0.1$ cm^3; Volume of the nasal cavity, right nostril [2]: 2.9 ± 0.2$ cm^3; Volume of the nasal cavity, left nostril [3]: 2.9 ± 0.1$ cm^3; Volume of the nasal cavity, right nostril [3]: 3.0 ± 0.1$ cm^3; Volume of the nasal cavity, left nostril [4]: 4.1 ± 0.2 cm^3; Volume of the nasal cavity, right nostril [4]: 4.1 ± 0.2 cm^3; Volume of the nasal cavity, left nostril [5]: 2.7 ± 0.2$ cm^3; Volume of the nasal cavity, right nostril [5]: 2.7 ± 0.2$ cm^3; Volume of the nasal cavity, left nostril [6]: 3.2 ± 0.2*$ cm^3; Volume of the nasal cavity, right nostril [6]: 3.3 ± 0.2*$ cm^3; Volume of the nasal cavity, left nostril [7]: 2.5 ± 0.2*$ cm^3; Volume of the nasal cavity, right nostril [7]: 2.5 ± 0.1*$ cm^3; Volume of the nasal cavity, left nostril [8]: 2.4 ± 0.2*$ cm^3; Volume of the nasal cavity, right nostril [8]: 2.4 ± 0.2*$ cm^3; Volume of the nasal cavity, left nostril [9]: 3.2 ± 0.2*$ cm^3; Volume of the nasal cavity, right nostril [9]: 3.2 ± 0.2*$ cm^3; Volume of the nasal cavity, left nostril [10]: 3.6 ± 0.2*$ cm^3; Volume of the nasal cavity, right nostril [10]: 3.6 ± 0.2$ cm^3; Volume of the nasal cavity, left nostril [11]: 4.5 ± 0.1 cm^3; Volume of the nasal cavity, right nostril [11]: 4.5 ± 0.1 cm^3; Volume of the nasal cavity, left nostril [12]: 2.8 ± 0.2$ cm^3; Volume of the nasal cavity, right nostril [12]: 2.7 ± 0.2$ cm^3; Volume of the nasal cavity, left nostril [13]: 3.6 ± 0.2*$ cm^3; Volume of the nasal cavity, right nostril [13]: 3.6 ± 0.2*$ cm^3; Volume of the nasal cavity, left nostril [14]: 2.8 ± 0.3*$ cm^3; Volume of the nasal cavity, right nostril [14]: 2.8 ± 0.2*$ cm^3; Volume of the nasal cavity, left nostril [15]: 2.7 ± 0.1*$ cm^3; Volume of the nasal cavity, right nostril [15]: 2.7 ± 0.2*$ cm^3; Volume of the nasal cavity, left nostril [16]: 3.3 ± 0.2*$ cm^3; Volume of the nasal cavity, right nostril [16]: 3.3 ± 0.1*$ cm^3; Volume of the nasal cavity, left nostril [17]: 3.8 ± 0.2*$ cm^3; Volume of the nasal cavity, right nostril [17]: 3.8 ± 0.2*$ cm^3; Volume of the nasal cavity, left nostril [18]: 4.5 ± 0.2 cm^3; Volume of the nasal cavity, right nostril [18]: 4.5 ± 0.1 cm^3; Volume of the nasal cavity, left nostril [19]: 3.1 ± 0.3$ cm^3; Volume of the nasal cavity, right nostril [19]: 2.7 ± 0.2$ cm^3; Volume of the nasal cavity, left nostril [20]: 3.4 ± 0.2*$ cm^3; Volume of the nasal cavity, right nostril [20]: 3.4 ± 0.1*$ cm^3; Volume of the nasal cavity, left nostril [21]: 2.6 ± 0.1*$ cm^3; Volume of the nasal cavity, right nostril [21]: 2.6 ± 0.1*$ cm^3; Volume of the nasal cavity, left nostril [22]: 2.5 ± 0.2*$ cm^3; Volume of the nasal cavity, right nostril [22]: 2.5 ± 0.2*$ cm^3; Volume of the nasal cavity, left nostril [23]: 4.4 ± 0.1 cm^3; Volume of the nasal cavity, right nostril [23]: 4.5 ± 0.1 cm^3; Volume of the nasal cavity, left nostril [24]: 3.5 ± 0.2$ cm^3; Volume of the nasal cavity, right nostril [24]: 3.4 ± 0.1$ cm^3; Volume of the nasal cavity, left nostril [25]: 2.6 ± 0.2$ cm^3; Volume of the nasal cavity, right nostril [25]: 2.5 ± 0.2$ cm^3; Volume of the nasal cavity, left nostril (oral once 30 minutes before histamine, 0.005 mg/kg, 15 minutes after histamine): 2.2 ± 0.2$^ cm^3
